# Assay results from PubChem BioAssay AID248 (DTP/NCI, 2004).
# Several values for one entry are separate records, joined by “and”; a condition that tells them apart may be missing. Equal values may be shown once. Toxic doses and inconclusive results are not listed. Peptide text beside a SMILES is read from it. * marks the point of attachment. Boc = CC(C)(C)OC(=O)*; Bn = c1ccc(C*)cc1
# Test system: L1210 leukemia ip in BDF1 mice, survival T/C
# Test: NCI In Vivo Anticancer Drug Screen. Data for tumor model L1210 Leukemia (intraperitoneal) in B6D2F1 (BDF1) mice
# Settings: endpoint: mean survival time, higher = longer survival
# How it was run: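 Antitumor effect is assessed in tumor-bearing animals. Survival in the compound arm is compared with a vehicle-dosed control arm and expressed as their quotient.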
# [1] = dose: 100.0 mg/kg/injection, schedule: Q01DX001 (ip), vehicle: saline with Tween-80
# [2] = dose: 200.0 mg/kg/injection, schedule: Q01DX001 (ip), vehicle: saline with Tween-80
# [3] = dose: 400.0 mg/kg/injection, schedule: Q01DX001 (ip), vehicle: saline with Tween-80
# [4] = dose: 100.0 mg/kg/injection, schedule: Q04DX003 (ip), vehicle: saline with Tween-80
# [5] = dose: 200.0 mg/kg/injection, schedule: Q04DX003 (ip), vehicle: saline with Tween-80
# [6] = dose: 400.0 mg/kg/injection, schedule: Q04DX003 (ip), vehicle: saline with Tween-80
# [7] = dose: 100.0 mg/kg/injection, schedule: Q04DX003 (ip), vehicle: Klucel (hydroxypropylcellulose) (HPC)
# [8] = dose: 200.0 mg/kg/injection, schedule: Q04DX003 (ip), vehicle: Klucel (hydroxypropylcellulose) (HPC)
# [9] = dose: 100.0 mg/kg/injection, schedule: Q01DX009 (ip), vehicle: Klucel (hydroxypropylcellulose) (HPC)
# [10] = dose: 200.0 mg/kg/injection, schedule: Q01DX009 (ip), vehicle: Klucel (hydroxypropylcellulose) (HPC)
# [11] = dose: 400.0 mg/kg/injection, schedule: Q01DX009 (ip), vehicle: Klucel (hydroxypropylcellulose) (HPC)
# [12] = dose: 400.0 mg/kg/injection, schedule: Q04DX003 (ip), vehicle: Klucel (hydroxypropylcellulose) (HPC)
# [13] = dose: 100.0 mg/kg/injection, schedule: Q01DX009 (ip), vehicle: saline
# [14] = dose: 200.0 mg/kg/injection, schedule: Q01DX009 (ip), vehicle: saline
# [15] = dose: 400.0 mg/kg/injection, schedule: Q01DX009 (ip), vehicle: saline
# [16] = dose: 100.0 mg/kg/injection, schedule: Q01DX009 (ip), vehicle: saline with Tween-80
# [17] = dose: 200.0 mg/kg/injection, schedule: Q01DX009 (ip), vehicle: saline with Tween-80
# [18] = dose: 100.0 mg/kg/injection, schedule: Q04DX002 (ip), vehicle: Klucel (hydroxypropylcellulose) (HPC)
# [19] = dose: 200.0 mg/kg/injection, schedule: Q04DX002 (ip), vehicle: Klucel (hydroxypropylcellulose) (HPC)
# [20] = dose: 400.0 mg/kg/injection, schedule: Q04DX002 (ip), vehicle: Klucel (hydroxypropylcellulose) (HPC)
# [21] = dose: 400.0 mg/kg/injection, schedule: Q01DX009 (ip), vehicle: saline with Tween-80
structure (smiles),measurement,setting,value
CC(=O)Oc1c2sccc2cc2ccsc12,T/C,[1],97 % of control
same,T/C,[2],92 % of control
same,T/C,[3],92 % of control
CNC(=O)C(C)(C)Br,T/C,"dose: 100.0 mg/kg/injection, schedule: Q04DX003 (ip), vehicle: saline",105 % of control
same,T/C,"dose: 200.0 mg/kg/injection, schedule: Q04DX003 (ip), vehicle: saline",109 % of control
same,T/C,"dose: 400.0 mg/kg/injection, schedule: Q04DX003 (ip), vehicle: saline",107 % of control
O=C(O)/C=C(/Cl)c1ccccc1,T/C,[4],102 % of control
same,T/C,[5],100 % of control
same,T/C,[6],108 % of control
COc1cc([C@@H]2c3cc4c(cc3[C@H](OC(C)=O)[C@H]3COC(=O)[C@@H]23)OCO4)cc(OC)c1OC,T/C,"dose: 33.0 mg/kg/injection, schedule: Q01DX009 (ip), vehicle: saline with Tween-80",97 % of control
same,T/C,[7],98 % of control
same,T/C,[8],90 % of control
CC(=O)c1ccccc1I,T/C,[9],94 % of control
same,T/C,[7],100 % of control
same,T/C,[10],97 % of control
same,T/C,[8],94 % of control
same,T/C,[11],103 % of control
same,T/C,[12],95 % of control
CCCC(C(=O)OCCNC1CCCCC1)c1ccccc1 (centres undefined),T/C,"dose: 75.0 mg/kg/injection, schedule: Q01DX001 (ip), vehicle: saline",104 % of control
CC(C)(C)OC(=O)NC(CO)C(=O)NC(Cc1ccc(OCc2ccccc2)cc1)C(=O)NCC(=O)O (stereo not drawn) (Boc-Ser-Tyr(Bn)-Gly-OH; configuration not given here),T/C,"dose: 50.0 mg/kg/injection, schedule: Q01DX005 (ip), vehicle: saline",100 % of control
same,T/C,"dose: 200.0 mg/kg/injection, schedule: Q01DX005 (ip), vehicle: saline",105 % of control
same,T/C,"dose: 400.0 mg/kg/injection, schedule: Q01DX005 (ip), vehicle: saline",91 % of control
CCOC(=O)/C=C(\C)OCC,T/C,"dose: 25.0 mg/kg/injection, schedule: Q01DX009 (ip), vehicle: saline",106 % of control
same,T/C,"dose: 50.0 mg/kg/injection, schedule: Q01DX009 (ip), vehicle: saline",109 % of control
same,T/C,[13],109 % of control
same,T/C,[14],111 % of control
same,T/C,[15],104 % of control
CCOC(=O)/C=C/C(F)(F)C(F)(F)C(F)(F)C(F)(F)C(F)(F)C(F)(F)C(F)(F)F,T/C,[13],98 % of control
same,T/C,[14],105 % of control
same,T/C,[15],105 % of control
Nc1nc(SCc2ccncc2)c2[nH]cnc2n1,T/C,"dose: 178.0 mg/kg/injection, schedule: Q01DX001 (ip), vehicle: saline",118 % of control
CC(=O)Nc1ccc(NC(=O)C2CC2)cc1,T/C,[9],95 % of control
same,T/C,[10],109 % of control
same,T/C,[11],104 % of control
CC1c2cccc(Cl)c2C(=O)c2c(Cl)cccc21,T/C,[9],102 % of control
same,T/C,[7],108 % of control
same,T/C,[10],102 % of control
same,T/C,[8],102 % of control
same,T/C,[11],110 % of control
same,T/C,[12],96 % of control
CC1(C)OC2OC(C(O)CSCc3ccccc3)C(O)C2O1 (centres undefined),T/C,"dose: 50.0 mg/kg/injection, schedule: Q01DX009 (ip), vehicle: saline with Tween-80",94 % of control
same,T/C,[1],92 % of control
same,T/C,[16],93 % of control
same,T/C,[2],89 % of control
same,T/C,[17],97 % of control
C=C(C)C1CCC2=CCCC(C)C2(C)C1 (centres undefined),T/C,"dose: 100.0 mg/kg/injection, schedule: Q04DX003 (ip), vehicle: acetone",98 % of control
same,T/C,"dose: 200.0 mg/kg/injection, schedule: Q04DX003 (ip), vehicle: acetone",96 % of control
CNC(=O)NCCN(C)c1ccccc1,T/C,[18],92 % of control
same,T/C,[19],110 % of control
same,T/C,[20],106 % of control
CC(O)(/C=C\c1ccccc1)c1ccccc1 (centres undefined),T/C,[16],104 % of control
same,T/C,[4],103 % of control
same,T/C,[17],102 % of control
same,T/C,[5],101 % of control
same,T/C,[21],93 % of control
same,T/C,[6],108 % of control
O=CC(CCN1CCCCC1)(CCN1CCCCC1)c1cccc2ccccc12,T/C,"dose: 25.0 mg/kg/injection, schedule: Q04DX002 (ip), vehicle: Klucel (hydroxypropylcellulose) (HPC)",107 % of control
same,T/C,"dose: 50.0 mg/kg/injection, schedule: Q04DX002 (ip), vehicle: Klucel (hydroxypropylcellulose) (HPC)",100 % of control
same,T/C,[9],105 % of control
same,T/C,[18],98 % of control
O=C(O)C1CC=CCC1C(=O)Nc1cccc(O)c1 (centres undefined),T/C,[18],99 % of control
same,T/C,[19],105 % of control
same,T/C,[20],99 % of control
CC(=O)n1c(O)c(N=NC(=N)N[N+](=O)[O-])c2ccccc21,T/C,[1],97 % of control
same,T/C,"dose: 132.0 mg/kg/injection, schedule: Q01DX001 (ip), vehicle: saline with Tween-80",101 % of control
same,T/C,[2],97 % of control
same,T/C,"dose: 300.0 mg/kg/injection, schedule: Q01DX001 (ip), vehicle: saline with Tween-80",106 % of control
same,T/C,[3],101 % of control
O=C(COc1cccc(Cl)c1)Nc1ccc(Cl)cc1,T/C,"dose: 100.0 mg/kg/injection, schedule: Q01DX009 (ip), vehicle: gum acacia",86 % of control
same,T/C,"dose: 200.0 mg/kg/injection, schedule: Q01DX009 (ip), vehicle: gum acacia",86 % of control
same,T/C,"dose: 400.0 mg/kg/injection, schedule: Q01DX009 (ip), vehicle: gum acacia",87 % of control
COc1ccc(Cl)cc1NC(=O)Oc1ccccn1,T/C,[16],89 % of control
same,T/C,"dose: 100.0 mg/kg/injection, schedule: Q04DX002 (ip), vehicle: saline with Tween-80",92 % of control and 97 % of control
same,T/C,[4],95 % of control
same,T/C,[2],89 % of control
same,T/C,[17],90 % of control and 91 % of control
same,T/C,"dose: 200.0 mg/kg/injection, schedule: Q04DX002 (ip), vehicle: saline with Tween-80",93 % of control and 102 % of control
same,T/C,[5],101 % of control
same,T/C,[3],92 % of control
same,T/C,[21],96 % of control
same,T/C,"dose: 400.0 mg/kg/injection, schedule: Q04DX002 (ip), vehicle: saline with Tween-80",95 % of control and 91 % of control
same,T/C,[6],101 % of control
CN1CCN=C1c1ccc(NC(=O)c2ccc(C(=O)Nc3ccc(C4=NCCN4C)cc3)c(N)c2)cc1,T/C,"dose: 3.0 mg/kg/injection, schedule: Q01DX Z (ip), vehicle: carboxymethylcellulose (CMC)",242 % of control
same,T/C,"dose: 6.0 mg/kg/injection, schedule: Q01DX Z (ip), vehicle: carboxymethylcellulose (CMC)",159 % of control
same,T/C,"dose: 6.0 mg/kg/injection, schedule: Q01DX Z (oral), vehicle: water",98 % of control
same,T/C,"dose: 12.0 mg/kg/injection, schedule: Q01DX Z (ip), vehicle: carboxymethylcellulose (CMC)",103 % of control
same,T/C,"dose: 12.0 mg/kg/injection, schedule: Q01DX Z (oral), vehicle: water",95 % of control
same,T/C,"dose: 24.0 mg/kg/injection, schedule: Q01DX Z (oral), vehicle: water",98 % of control
same,T/C,"dose: 48.0 mg/kg/injection, schedule: Q01DX Z (oral), vehicle: water",101 % of control
CN(/N=N/N(C)c1ccccc1)c1ccccc1,T/C,"dose: 6.3 mg/kg/injection, schedule: Q01DX Z (sc), vehicle: carboxymethylcellulose (CMC)",102 % of control
same,T/C,"dose: 12.5 mg/kg/injection, schedule: Q01DX Z (sc), vehicle: carboxymethylcellulose (CMC)",113 % of control
same,T/C,"dose: 25.0 mg/kg/injection, schedule: Q01DX Z (sc), vehicle: carboxymethylcellulose (CMC)",105 % of control and 106 % of control
same,T/C,"dose: 50.0 mg/kg/injection, schedule: Q01DX Z (sc), vehicle: carboxymethylcellulose (CMC)",102 % of control
same,T/C,"dose: 100.0 mg/kg/injection, schedule: Q01DX001 (ip), vehicle: carboxymethylcellulose (CMC)",102 % of control
same,T/C,"dose: 100.0 mg/kg/injection, schedule: Q01DX Z (sc), vehicle: carboxymethylcellulose (CMC)",104 % of control
same,T/C,"dose: 150.0 mg/kg/injection, schedule: Q01DX Z (sc), vehicle: carboxymethylcellulose (CMC)",91 % of control
same,T/C,"dose: 200.0 mg/kg/injection, schedule: Q01DX001 (ip), vehicle: carboxymethylcellulose (CMC)",102 % of control
same,T/C,"dose: 300.0 mg/kg/injection, schedule: Q01DX Z (sc), vehicle: carboxymethylcellulose (CMC)",100 % of control
same,T/C,"dose: 400.0 mg/kg/injection, schedule: Q01DX001 (ip), vehicle: carboxymethylcellulose (CMC)",98 % of control
